According to patent US20230227484A1, “PYRIMIDINE COMPOUND AS AXL INHIBITOR” (NANJING CHIA TAI TIANQING PHARMACEUTICAL CO., LTD., priority 2020, published 2023):
pIC50: −log10 of the molar value.

Experiments:
[1] = tested on: human acute monocytic leukemia cell MV-4-11 xenograft tumor; test: In-vivo efficacy of compound for MV4-11 xenograft tumor model of nude mouse; conditions: MV4-11, po
[2] = tested on: MV-4-11 (human myeloid monocytic leukemia cell line); test: Proliferation inhibition activity of compounds to MV-4-11 cells (CellTiter-Glo); format: cell-based; conditions: MV4-11 cells, 72 h dosing
Protocol: MV-4-11 (human myeloid monocytic leukemia cell line, culture medium: JIMDM+10% fetal bovine serum) is purchased from Cobioer Biosciences Co., Ltd and cultured in a 5% C02 incubator at 37° C. The cells in a logarithmic growth phase are plated in a 96-well plate at cell densities of 8000 cells/well, 6000 cells/well, 2000 cells/well, 2000 cells/well and 3000 cells/well, and a blank control group is set at the same time.
A compound to be tested and the positive drug are dissolved in dimethyl sulfoxide to prepare a 10 mM stock solution, which is then stored in −80° C. refrigerator for long-time storage. After the cells are plated for 24 h, the 10 mM compound stock solution is diluted with dimethyl sulfoxide to obtain a working solution having a 200-fold concentration (the highest concentration is 200 or 2000 μM, a 3-fold gradient, a total of 10 concentrations), and 3 μL of the working solution of each concentration is added to 197 μL of complete medium, and diluted into a working solution of 3-fold concentration. 50 μL of the working solution is then taken and added to a 100 μL cell culture medium (a final concentration of dimethyl sulfoxide is 0.5%, v/v), and two complex holes are set for each concentration. After 72 h of dosing treatment, 50 μl of CellTiter-Glo® (purchased from Promega) is added to each well. Fluorescence signals are measured on Envision (PerkinElmer) according to an operating procedure of the specification. GraphPad Prism 5 software log(inhibitor) vs. response-Variable slope is used to fit a dose-response curve, so as to obtain the IC50 value of the compound to the inhibition of cell-proliferation. The calculation formulation of the inhibition rate is as follows: […]
wherein: signal value of subject: a mean fluorescence signal of cell+medium+compound group; signal value of blank group: a mean fluorescence signal of medium group (containing 0.5% DMSO); signal value of negative control group: a mean fluorescence signal of cell+medium group (containing 0.5% DMSO).

[3] = tested on: human acute monocytic leukemia cell MV-4-11 xenograft tumor; test: In-vivo efficacy of compound for MV4-11 xenograft tumor model of nude mouse; conditions: MV4-11, po, intragastric 5 mg/kg/d, once a day, end of experiment, MV-4-11 xenograft nude mice; for response vs control in vivo at 5 mg/kg/day: read-out: Relative tumor proliferation rate (% T/C); for inhibition in vivo at 5 mg/kg/day: read-out: Tumor growth inhibition rate (TGI %)
Protocol: Inhibitory effects of a compound and a positive drug on the in-vivo tumor growth of a xenograft tumor model of a nude mouse on human acute monocytic leukemia cell MV-4-11 are tested.
MV-4-11 cells in a logarithmic growth phase are harvested, resuspended after cell counting, and adjusted in cell concentration to 7.0×10^7 cells/mL. The resuspended solution is injected into the right armpit of the nude mice subcutaneously. Each animal is inoculated with 200 μL (14×10^6 cells) of the suspended solution to establish a MV-4-11 xenograft tumor model. Afer the tumor volume reaches 100-300 mm^3, tumor-bearing mice in good health and similar tumor volume are selected.
The compound and the positive drug are vortexed with a suitable solvent and then ultrasonicated to completely dissolve the compound. Then, an appropriate volume of citric acid buffer is slowly added, and the mixed solution is vortexed to make the solution mixed uniformly to obtain administrative formulations having concentrations of 0.1, 0.5, and 1 mg-mL^−1.
Solvent control group: PEG400 & citric acid buffer (20:80, v:v).
The modeled mice are randomly divided into groups (n=6), and administrated with the relevant compounds and positive drugs on the day of grouping. After 21 days or after the tumor volume of the solvent control group reaches 2000 mm^3, the experiment is terminated (whichever reaches the index first), and the administration volume is 10 mL-kg^−1. Both the compound and the positive drug are administered by gavage, once a day. After the experiment starts, the tumor diameter and animal body weight are measured twice a week, and the tumor volume is calculated.
The tumor volume(TV) calculation formula is: tumor volume(mm^3)=l×w^2/2,
The calculation formula of relative tumor volume(RTV) is: RTV=TVt/TVinitial
The calculation formula of relative tumor proliferation rate (% T/C) is: % T/C=100%×(RTVT/RTVC)

[4] = Pharmacokinetic study of compounds on ICR mice; format: in vivo; conditions: mouse, po, male ICR mice, plasma; for Cmax / Tmax / half-life: 10 mg-kg^1 by gavage; for AUC(0-t): 10 mg/kg-kg^1 by gavage, read-out: AUC0-24
Protocol: Each compound is prepared with DMSO into a 10 mg/mL stock solution.
Preparation of mixed solvent: Tween 80: PEG400: Water=1:9:90 (v/v/v)
450 μl of the compound DMSO stock solution with a concentration of 10 mg/nmL is accurately sucked into a glass bottle, and added with an appropriate volume of DMSO and mixed solvent, wherein a ratio of the solvent in the final formulation is DMSO: mixed solvent (v/v)=10:90. The mixed solution is vortexed (or ultrasonically treated), and dispersed uniformly to obtain 4.5 mL. administration test solutions with a concentration of 1 mg/nL, respectively.
Male 6-10 week old ICR mice (sourced from: Beijing Vital River Laboratory Animal Technology Co., Ltd.) are taken, 6 mice in each group. The mice are fasted overnight and fed 4 h after the administration. On the day of the experiment, the mice are administrated with 10 mg-kg^1 of compound test solution by gavage. After administration, about 100 μL of blood is harvested from the orbits of the mice at 0 min, 5 mmn, 15 mmn, 30 min, 14 h 2 h, 4 h, 8 h, and 24 h, and placed in EDTA-K2 anticoagulant tubes. The whole blood sample is centrifuged at 1500 to 1600 g for 10 mm, and the plasma obtained by separation is stored in a refrigerator at −40 to −20° C. for biological sample analysis. The blood drug concentration is determined by an LC-MS/MS method.
A non-compartmental model in Pharsight Phoenix 7.0 is used to calculate pharmacokinetic parameters. The specific results are shown in 5 the table below.

[5] = target: T1, AXL kinase (Homo sapiens, UniProt P30530); test: Inhibitory activity of compound against AXL kinase (HTRF KinEASE); format: biochemical; conditions: AXL enzyme (Carna, 08-107), ATP 15 μM; "<" means below detection limit of the test
T1 construct: purchased Carna 08-107
T1 sequence (P30530 473-894 limits assumed): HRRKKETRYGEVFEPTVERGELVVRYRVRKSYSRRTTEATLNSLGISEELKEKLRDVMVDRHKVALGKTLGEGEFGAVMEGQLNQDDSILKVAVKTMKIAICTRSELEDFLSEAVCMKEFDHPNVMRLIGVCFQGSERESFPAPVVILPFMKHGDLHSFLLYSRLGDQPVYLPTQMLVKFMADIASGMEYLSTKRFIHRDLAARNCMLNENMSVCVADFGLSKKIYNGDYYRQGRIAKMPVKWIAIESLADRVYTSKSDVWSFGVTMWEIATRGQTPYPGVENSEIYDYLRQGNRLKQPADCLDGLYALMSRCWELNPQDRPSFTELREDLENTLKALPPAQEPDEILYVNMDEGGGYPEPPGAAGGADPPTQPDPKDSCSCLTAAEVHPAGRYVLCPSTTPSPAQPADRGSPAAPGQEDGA
Summary of the method: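 AXL enzyme (final 0.016 ng/uL) was preincubated with compound (8 concentrations from 1 μM, ½ log steps) for 15 min at room temperature, then reacted with TK Substrate 3-biotin (final 1) and ATP (final 15 μM) for 45 min at 25° C. Phosphorylation was read by HTRF (TK antibody-cryptate, streptavidin-XL665, 1 h); IC50 from variable-slope dose-response fit.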

Compound | pIC50 [2] | Cmax [4] | Tmax [4] | half-life [4] | AUC(0-t) [4] | IC50 [5] | inhibition in vivo at 20 mg/kg/day ([1]; intragastric 20 mg/kg/d, once a day, end of experiment, MV-4-11 xenograft nude mice, read-out: Tumor growth inhibition rate (TGI %)) | response vs control in vivo at 20 mg/kg/day ([1]; read-out: Relative tumor proliferation rate (% T/C)) | response vs control in vivo at 5 mg/kg/day [3] | inhibition in vivo at 5 mg/kg/day [3]
Clc1cnc(Nc2ccc3c(c2)CC[C@@H](N2CCCC2)CC3)nc1Nc1ccccc1-c1ncc[nH]1 [Example 18, (S)—N^4-(2-(1H-imidazol-2-yl)phenyl)-5-chloro-N^2-(7-(pyrrolidin-1-yl)-6,7,8,9-tetrahydro-5H-benzo[7]annulen-2-yl)pyrimidine-2,4-diamine] | – | 249 ng/mL | 2 h | 3.03 h | 2300 ng·h/mL | 0.19 nM | – | – | 37% | 71%
CN1Cc2cccc(Nc3nc(Nc4ccc5c(c4)CC[C@@H](N4CCCC4)CC5)ncc3Cl)c2C1=O [Example 28, (S)-7-((5-chloro-2-(((7-(pyrrolidin-1-yl)-6,7,8,9-tetrahydro-5H-benzo[7]annulen-2-yl)amino))pyrimidin-4-yl)amino)-2-methylisoindolin-1-one] | – | 226 ng/mL | 8 h | – | 3000 ng·h/mL | 0.31 nM | – | – | 5.9% | 104%
CP(C)(=O)c1cc(F)ccc1Nc1nc(Nc2ccc3c(c2)CC[C@@H](N2CCCC2)CC3)ncc1Cl [Example 51, (S)-(2-((5-chloro-2-((7-(pyrrolidin-1-yl)-6,7,8,9-tetrahydro-5H-benzo[7]annulen-2-yl)amino)pyrimidin-4-yl)amino)-5-fluorophenyl)dimethyl phosphine oxide] | 8.34 | 419 ng/mL | 0.5 h | 2.17 h | 1070 ng·h/mL | 2.6 nM | – | – | – | –
CP(C)(=O)c1cc(Cl)ccc1Nc1nc(Nc2ccc3c(c2)CC[C@@H](N2CCCC2)CC3)ncc1Cl [Example 52] | 8.27 | 429 ng/mL | 0.5 h | 2.42 h | 1150 ng·h/mL | 1.06 nM | – | – | – | –

The next lines start with results.

pIC50 [2] | Cmax [4] | Tmax [4] | half-life [4] | AUC(0-t) [4] | IC50 [5] | Compound | inhibition in vivo at 20 mg/kg/day ([1]; intragastric 20 mg/kg/d, once a day, end of experiment, MV-4-11 xenograft nude mice, read-out: Tumor growth inhibition rate (TGI %)) | response vs control in vivo at 20 mg/kg/day ([1]; read-out: Relative tumor proliferation rate (% T/C)) | response vs control in vivo at 5 mg/kg/day [3] | inhibition in vivo at 5 mg/kg/day [3]
6.68 | – | – | – | – | – | Nc1nc(Nc2ccc3c(c2)CC[C@@H](N2CCCC2)CC3)nn1-c1cc2c(nn1)-c1ccccc1CCC2 [Positive drug 1 (BGB324), BGB324] | 32% | 71% | – | –
7.92 | 26.8 ng/mL | 0.25 h | – | 52.2 ng·h/mL | – | CN1CCN(Cc2ccc(Nc3ncc(Cl)c(Nc4ccccc4S(=O)(=O)N(C)C)n3)cc2)CC1 [Positive drug 2 (TP0903), TP0903, reference compound] | – | – | 42% | 62%
